# Where “and” joins values, the source holds several entries; their conditions need not be identical. Equal entries are not always repeated. Where two headings read alike, the source gives them in different places.
# Tests used:
# PDE5A1 [1] = biological target: T1, PDE5A1 (Homo sapiens, UniProt O76074); details: converted from literature IC50; cited from earlier work
# PDE5A1 [2] = biological target: T1, PDE5A1; test: CoMFA 3D-QSAR model prediction of PDE5A1 activity; details: EA minus PA
# Protocol: (§1) All molecular modeling and calculations were performed by the Sybyl program package. The structures of all compounds were constructed using the Sketch Molecule module. Structural energy minimization was carried out using the standard Tripos molecular mechanics force field and Gasteiger-Huckle charge, with the convergence criterion set at 0.005 kcal/(Å·mol) and the max iterations for the minimization set to 10,000.
# The 3D cubic lattice region was created automatically and the grid spacing was set at 1.7 Å in the x, y, and z directions. A sp^3 carbon atom with + 1 net charge was taken as the probe atom and steric and electrostatic interactions were calculated by using the Tripos force field. A cutoff of 30 kcal/mol was adopted in calculating energies. With standard options for scaling of variables, the regression analysis was carried out using partial least squares (PLS) method. The cross-validation with Leave-One-Out (LOO) option was carried out to obtain the optimum number of components (ONC).The final model (non-cross-validated conventional analysis) was developed with the optimum number of components. Region focusing is an advanced strategy that improves prediction ability of the initial built CoMFA model. CoMFA region focusing method refines a model by increasing the weights of the lattice points. StDev × coefficient values were used as weights.
# PDE5A1 [3] = biological target: T1, PDE5A1; test: CoMSIA 3D-QSAR model prediction of PDE5A1 activity; details: EA minus PA
# Protocol: as §1
# Although CoMSIA is similar to CoMFA, CoMSIA not only computes the steric and electrostatic fields, but also calculates additional hydrophobic, hydrogen-bond donor, and hydrogen-bond acceptor fields. CoMSIA descriptors were calculated with the same lattice box, grid spacing and probe atom as that used for the CoMFA calculations. In CoMSIA analysis, the five different descriptor fields are not totally independent from each other. Given that the size of dataset, we decided to use three of five fields as the descriptors.
# PDE5A1 [4] = biological target: T1, PDE5A1; test: PDE5A1 inhibition assay, enzyme reaction with HPLC detection of cGMP; format: biochemical; details: 0.15 µg/mL PDE5A1, 7.5 µg/mL cGMP, 90 min at 35 ℃
# Protocol: 50 μL analytes were injected and separated on the C18 5 μm column with a flow rate of 1 mL/min at 30 °C column temperature. The mobile phase consisted of methanol and 0.05 mol/L potassium dihydrogen phosphate (10:90, V/V).
# All components for assay were diluted in assay buffer which contained 100 mM MgCl2 and 50 mM Tris–HCl (pH 8.0). The compounds were dissolved in DMSO and then further diluted to the desired concentration with assay buffer. 30 μL PDE5A1 solution and 30 μL compound solution were mixed at room temperature and incubated for 5 min, followed by addition of with 30 μL cGMP solution, and the reaction was carried out at 35 °C for 90 min. After the assay, each vial was incubated in 100 °C boiling water for 5 min to inactivate the PDE5A1 activity, and then was cooled to be detected with HPLC. No PDE5A1 was used as the positive control, and DMSO was used as the negative control. Percentage inhibition was calculated using the peak area of HPLC with the following formula.
# For dose–response experiments, the PDE5A1 inhibitors were diluted to 7 concentrations series with fourfold gradient. Two individual operations were performed on different dates as the repetition.
# For developing the screening method for PDE5A1 inhibitors, the in vitro enzyme reaction and HPLC detection were combined. […] The concentrations of enzyme and substrate are important parameters in the inhibitor screening assay.
# [5] = system: cytoplasmic calcium in CCSMCs; test: Fluorescent staining of calcium (Fluo-4AM) in CCSMCs; format: cell-based, rat; details: for fluorescence intensity of cytoplasmic calcium in CCSMCs: 10 uM, 30 min, Fluo-4 AM
# Description: (§2) Male Sprague–Dawley (SD) rats (180–220 g) were purchased from Shanghai SLAC Laboratory Animal Co., Ltd. This experiment protocol was approved by the standardizing laboratory animal ethical review of Shanghai University of Traditional Chinese Medicine. After removal of the corpus spongiosum, subcutaneous tissue and deep fascia of penises of SD rats, the corpus cavernosum tissue was cut into small pieces of less than 2mm^3 and digested with 0.5% collagenase I and 20% fetal bovine serum (PFES) in DMEM for 4 h. The cell suspensions were collected by mesh filtration and centrifugation, and cultured in DMEM containing 20% PFES and 1 × antibiotics at 37 °C in a humidified atmosphere with 5% CO2. After 24 h culture, spindle CCSMCs attached to the culture dish. The medium was replaced with DMEM containing 10% PFES when CCSMCs reached 70% confluence.
# CCSMCs were cultured in 6-well plate at a density of 100,000/well for 48 h. Then cells were stained by Fluo-4AM for 30 min prior to […] 1 ~ 3 exposure for 30 min in the presence or absence of 10 μM Rp-8-Br-cGMPS (the protein kinase G inhibitor). After PBS rinse, the cytosolic calcium was observed by fluorescence microscope.
# cGMP level of CCSMCs = test: cGMP assay in CCSMCs by ELISA; format: cell-based, rat; details: 10 μM, 48 h
# Description: as §2
# CCSMCs were seeded in 6-well plate at a density of 100,000/well for 24 h, and then were treated with 10 μM 1 ~ 3 for 48 h. The cells were lysed by 0.1 M hydrochloric acid with 200 μl per well for 20 min incubation, then the supernatant was collected and determined the cGMP content by ELISA.
structure (smiles),measurement,setting,value
COc1ccc(C(=O)/C=C\c2cc(OC)c(OC)cc2OC)c(OC)c1 [Compound 10],"pIC50 (-logIC50), experimental activity (EA)",PDE5A1 [1],5.745
same,CoMFA residual,PDE5A1 [2],0.296
same,CoMSIA residual,PDE5A1 [3],0.562
"COc1ccc(-c2oc3c(CC=C(C)C)c(OC4OC(CO)C(O)C(O)C4O)cc(O)c3c(=O)c2OC2OC(C)C(O)C(O)C2OC2OC(CO)C(O)C(O)C2O)cc1 (centres unmarked) [Compound 4, epimedin A]",IC50,PDE5A1 [4]; read-out: PDE5A1 (IC50 ± SD),409 ± 31.4 µM
"Nc1nc2c(nc(Br)n2[C@@H]2O[C@@H]3COP(O)(=S)O[C@H]3[C@H]2O)c(=O)[nH]1 (some centres unmarked) [Rp-8-Br-cGMPS, reference compound]",effect on calcium down-regulation by 1 ~ 3 in CCSMCs,"[5]; 10 μM Rp-8-Br-cGMPS together with 1 ~ 3, 30 min",blocked the down-regulated calcium levels
COc1ccc(-c2oc3c(CC=C(C)C)c(O)cc(O)c3c(=O)c2O)cc1 [Compound 7],CoMFA residual,PDE5A1 [2],0.105
same,CoMSIA residual,PDE5A1 [3],0.058
CCCOc1ccccc1-c1nc2n[nH]nc2c(=O)[nH]1 [Compound 17],CoMSIA residual,PDE5A1 [3],0.001
"COc1ccc(-c2oc3c(CC=C(C)C)c(OC4OC(CO)C(O)C(O)C4O)cc(O)c3c(=O)c2OC2OC(C)C(O)C(O)C2OC2OCC(O)C(O)C2O)cc1 (centres unmarked) [Compound 5, epimedin B]",IC50,PDE5A1 [4]; read-out: PDE5A1 (IC50 ± SD),358 ± 34.2 µM
same,CoMFA residual,PDE5A1 [2],0.032
COc1ccc(OC)c(C(=O)/C=C/c2ccc(OC)c(OC)c2)c1 [Compound 13],"pIC50 (-logIC50), experimental activity (EA)",PDE5A1 [1],5.155
"COc1ccc(-c2oc3c(CC=C(C)C)c(O[C@@H]4O[C@H](CO)[C@@H](O)[C@H](O)[C@H]4O)cc(O)c3c(=O)c2O[C@@H]2O[C@@H](C)[C@H](O)[C@@H](O)[C@H]2O)cc1 [Compound 1, icariin]",cGMP level of CCSMCs,cGMP level of CCSMCs,increase cGMP level
same,IC50,PDE5A1 [4]; PDE5A1 (IC50 ± SD),8.28 µM and 8.27 µM
same,fluorescence intensity of cytoplasmic calcium in CCSMCs,[5],decrease cytoplasmic Ca^2+
same,CoMFA residual,PDE5A1 [2],0.034
"CCCc1nn(C)c2c(=O)[nH]c(-c3cc(S(=O)(=O)N4CCN(C)CC4)ccc3OCC)nc12 [Sildenafil, sildenafil]",CoMFA residual,PDE5A1 [2],0.068
"COc1ccc(-c2oc3c(CC=C(C)C)c(O)cc(O)c3c(=O)c2OC2OC(C)C(O)C(O)C2OC2OC(C)C(O)C(O)C2O)cc1 (centres unmarked) [Compound 2, 2-O""-rhamnosylicaridide II]",cGMP level of CCSMCs,cGMP level of CCSMCs,increase cGMP level
same,IC50,PDE5A1 [4]; read-out: PDE5A1 (IC50 ± SD),3.23 µM
same,fluorescence intensity of cytoplasmic calcium in CCSMCs,[5],decrease cytoplasmic Ca^2+
same,CoMFA residual,PDE5A1 [2],0.015
"COc1ccc(-c2oc3c(CC=C(C)C)c(O)cc(O)c3c(=O)c2O[C@@H]2O[C@@H](C)[C@H](O)[C@@H](O)[C@H]2O)cc1 [Compound 3, baohuoside I]",cGMP level of CCSMCs,cGMP level of CCSMCs,increase cGMP level
same,IC50,PDE5A1 [4]; read-out: PDE5A1 (IC50 ± SD),5.47 µM and 5.48 µM
same,fluorescence intensity of cytoplasmic calcium in CCSMCs,[5],decrease cytoplasmic Ca^2+
same,CoMSIA residual,PDE5A1 [3],0.013
COc1ccc(/C=C/C(=O)c2c(OCc3ccccc3)cc(OC)c(OC)c2OC)cc1OC [Compound 12],"pIC50 (-logIC50), experimental activity (EA)",PDE5A1 [1],5.229
COc1ccc(-c2oc3c(CC=C(C)C)c(OCCO)cc(O)c3c(=O)c2OC2OC(C)C(O)C(O)C2O)cc1 (centres unmarked) [Compound 8],"pIC50 (-logIC50), experimental activity (EA)",PDE5A1 [1],6.444
same,CoMSIA residual,PDE5A1 [3],0.000
"COc1ccc(-c2oc3c(CC=C(C)C)c(OC4OC(CO)C(O)C(O)C4O)cc(O)c3c(=O)c2OC2OC(C)C(O)C(O)C2OC2OC(C)C(O)C(O)C2O)cc1 (centres unmarked) [Compound 6, epimedin C]",IC50,PDE5A1 [4]; read-out: PDE5A1 (IC50 ± SD),682 µM
same,CoMSIA residual,PDE5A1 [3],0.037
COc1cccc(/C=C/C(=O)c2c3c(c(OC)c4c2OCO4)CN(C)CC3)c1 [Compound 14],"pIC50 (-logIC50), experimental activity (EA)",PDE5A1 [1],5.208
same,CoMFA residual,PDE5A1 [2],0.06
same,CoMSIA residual,PDE5A1 [3],0.025

# From article PMC9805685, “Isolation, bioassay and 3D-QSAR analysis of 8-isopentenyl flavonoids from Epimedium sagittatum maxim. as PDE5A inhibitors” (Chinese Medicine, 2022)
